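Method: 48-hour compound exposure of cells in 96-well plates, five concentrations, linear interpolation of endpoints. The concentration for 50% growth inhibition is given as GI50. TGI is the concentration that stops growth completely.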
Assays:
Assay in all cases: NCI tumour cell line growth inhibition, 48 h
[1] = system: U251 CNS
[2] = system: HOP-62 NSCLC
[3] = system: UACC-62 melanoma
[4] = system: RPMI-8226 leukemia
[5] = system: SNB-75 CNS
[6] = system: K-562 leukemia
[7] = system: MDA-MB-231 breast
[8] = system: MDA-MB-435
[9] = system: NCI/ADR-RES ovarian
[10] = system: EKVX NSCLC
[11] = system: SK-MEL-28 melanoma
[12] = system: HCT-116 colon
[13] = system: HCT-15 colon
[14] = system: IGROV1 ovarian
[15] = system: NCI-H226 lung
[16] = system: HT29 colon
[17] = system: SNB-19 CNS
[18] = system: SW-620 colon
[19] = system: PC-3 prostate
[20] = system: MCF7 breast
[21] = system: T-47D breast
[22] = system: A498 renal
[23] = system: 786-0 renal
[24] = system: SN12C renal
[25] = system: A549 NSCLC
[26] = system: SR leukemia
[27] = system: NCI-H522 lung
[28] = system: DU-145 prostate
[29] = system: MALME-3M melanoma
[30] = system: BT-549 breast
[31] = system: MOLT-4 leukemia
[32] = system: KM12 colon
[33] = system: NCI-H23 lung
[34] = system: UO-31 renal
[35] = system: OVCAR-8 ovarian
[36] = system: NCI-H460 lung
[37] = system: SK-MEL-5 melanoma
[38] = system: OVCAR-5 ovarian
[39] = system: OVCAR-3 ovarian
[40] = system: SK-MEL-2 melanoma
[41] = system: CAKI-1 renal
[42] = system: HS 578T breast
[43] = system: SK-OV-3 ovarian
[44] = system: COLO 205 colon
[45] = system: OVCAR-4 ovarian
[46] = system: SF-539 CNS
[47] = system: TK-10 renal
[48] = system: UACC-257 melanoma
[49] = system: LOX IMVI melanoma
[50] = system: HL-60(TB) leukemia
[51] = system: SF-295 CNS
[52] = system: SF-268 CNS
[53] = system: CCRF-CEM leukemia
[54] = system: ACHN renal

In the case of `C#CCN=C(N/N=C/c1ccc([N+](=O)[O-])o1)NS(=O)(=O)c1cc(C)c(Cl)cc1SCC(N)=O`, the GI50 [1] is reported as 22.6 µM, the TGI [1] is reported as 84.9 µM and the GI50 [2] is reported as 12.9 µM. For the same compound, the TGI [2] was 25.7 µM, the GI50 [3] was 47.3 µM and the TGI [3] was greater than 100 µM. It also gave a GI50 [4] of 12.8 µM, a TGI [4] of 34.5 µM and a GI50 [5] of 25.8 µM. It also gave a TGI [5] of 59.8 µM, a GI50 [6] of 23.7 µM and a TGI [6] of 52.5 µM. For the same compound, the GI50 [7] was 11.4 µM, the TGI [7] was 26.4 µM and the GI50 [8] was greater than 100 µM. It also gave a TGI [8] greater than 100 µM, a GI50 [9] of 94.3 µM and a TGI [9] greater than 100 µM. The GI50 [10] was 17.8 µM, the TGI [10] was 32.2 µM and the GI50 [11] was 14.5 µM. For the same compound, the TGI [11] was 32.7 µM, the GI50 [12] was 8.03 µM and the TGI [12] was 20.3 µM. For the same compound, the GI50 [13] was 22.1 µM, the TGI [13] was 56.4 µM and the GI50 [14] was 13.9 µM. The TGI [14] was 27.2 µM, the GI50 [15] was 20.1 µM and the TGI [15] was 40.5 µM. The GI50 [16] was 26.3 µM, the TGI [16] was greater than 100 µM and the GI50 [17] was 50.6 µM. The TGI [17] was greater than 100 µM, the GI50 [18] was 4.44 µM and the TGI [18] was 17.1 µM. For the same compound, the GI50 [19] was 20.4 µM, the TGI [19] was 38.7 µM and the GI50 [20] was 6.59 µM. For the same compound, the TGI [20] was 22.5 µM, the GI50 [21] was 18.8 µM and the TGI [21] was 34.9 µM. The GI50 [22] was 17.1 µM, the TGI [22] was 32.7 µM and the GI50 [23] was 19.4 µM. It also gave a TGI [23] of 36.5 µM, a GI50 [24] of 15.5 µM and a TGI [24] of 29.4 µM. It also gave a GI50 [25] of 18 µM, a TGI [25] of 35.3 µM and a GI50 [26] of 17 µM. For the same compound, the TGI [26] was 50.1 µM, the GI50 [27] was 10 µM and the TGI [27] was 23.3 µM. For the same compound, the GI50 [28] was 11.6 µM, the TGI [28] was 24.5 µM and the GI50 [29] was 13.6 µM. For the same compound, the TGI [29] was 27.7 µM, the GI50 [30] was 1790 nM and the TGI [30] was 9.43 µM. For the same compound, the GI50 [31] was 13.2 µM, the TGI [31] was 31.9 µM and the GI50 [32] was 18.8 µM. It also gave a TGI [32] of 38.9 µM, a GI50 [33] of 18.5 µM and a TGI [33] of 33.1 µM. For the same compound, the GI50 [34] was 17.6 µM, the TGI [34] was 31.4 µM and the GI50 [35] was 13.8 µM. For the same compound, the TGI [35] was 29.6 µM, the GI50 [36] was 12.5 µM and the TGI [36] was 29.9 µM. For the same compound, the GI50 [37] was 4.14 µM, the TGI [37] was 15.2 µM and the GI50 [38] was 19.9 µM. The TGI [38] was 34.5 µM, the GI50 [39] was 24.9 µM and the TGI [39] was 41.1 µM. It also gave a GI50 [40] of 4.97 µM, a TGI [40] of 18.3 µM and a GI50 [41] of 25.7 µM. For the same compound, the TGI [41] was 45.1 µM, the GI50 [42] was 19.8 µM and the TGI [42] was 49.5 µM. For the same compound, the GI50 [43] was 49.2 µM, the TGI [43] was greater than 100 µM and the GI50 [44] was 26.9 µM. The TGI [44] was 84.4 µM, the GI50 [45] was 16.5 µM and the TGI [45] was 33.3 µM. It also gave a GI50 [46] of 17.3 µM, a TGI [46] of 31.7 µM and a GI50 [47] of 22.2 µM. It also gave a TGI [47] of 38.3 µM, a GI50 [48] of 13.9 µM and a TGI [48] of 27 µM. It also gave a GI50 [49] of 8.14 µM, a TGI [49] of 35.2 µM and a GI50 [50] of 21.1 µM. For the same compound, the TGI [50] was greater than 100 µM, the GI50 [51] was 22.8 µM and the TGI [51] was 47.1 µM. It also gave a GI50 [52] of 15 µM, a TGI [52] of 35.8 µM and a GI50 [53] of 22.2 µM. It also gave a TGI [53] of 57.4 µM, a GI50 [54] of 16.7 µM and a TGI [54] of 36.8 µM.

Reference: PubChem BioAssay (NCI)
